The target of one experiment is T1, Aminopeptidase N (Plasmodium falciparum FcB1/Columbia, UniProt O96935).
T1 sequence (O96935 whole entry): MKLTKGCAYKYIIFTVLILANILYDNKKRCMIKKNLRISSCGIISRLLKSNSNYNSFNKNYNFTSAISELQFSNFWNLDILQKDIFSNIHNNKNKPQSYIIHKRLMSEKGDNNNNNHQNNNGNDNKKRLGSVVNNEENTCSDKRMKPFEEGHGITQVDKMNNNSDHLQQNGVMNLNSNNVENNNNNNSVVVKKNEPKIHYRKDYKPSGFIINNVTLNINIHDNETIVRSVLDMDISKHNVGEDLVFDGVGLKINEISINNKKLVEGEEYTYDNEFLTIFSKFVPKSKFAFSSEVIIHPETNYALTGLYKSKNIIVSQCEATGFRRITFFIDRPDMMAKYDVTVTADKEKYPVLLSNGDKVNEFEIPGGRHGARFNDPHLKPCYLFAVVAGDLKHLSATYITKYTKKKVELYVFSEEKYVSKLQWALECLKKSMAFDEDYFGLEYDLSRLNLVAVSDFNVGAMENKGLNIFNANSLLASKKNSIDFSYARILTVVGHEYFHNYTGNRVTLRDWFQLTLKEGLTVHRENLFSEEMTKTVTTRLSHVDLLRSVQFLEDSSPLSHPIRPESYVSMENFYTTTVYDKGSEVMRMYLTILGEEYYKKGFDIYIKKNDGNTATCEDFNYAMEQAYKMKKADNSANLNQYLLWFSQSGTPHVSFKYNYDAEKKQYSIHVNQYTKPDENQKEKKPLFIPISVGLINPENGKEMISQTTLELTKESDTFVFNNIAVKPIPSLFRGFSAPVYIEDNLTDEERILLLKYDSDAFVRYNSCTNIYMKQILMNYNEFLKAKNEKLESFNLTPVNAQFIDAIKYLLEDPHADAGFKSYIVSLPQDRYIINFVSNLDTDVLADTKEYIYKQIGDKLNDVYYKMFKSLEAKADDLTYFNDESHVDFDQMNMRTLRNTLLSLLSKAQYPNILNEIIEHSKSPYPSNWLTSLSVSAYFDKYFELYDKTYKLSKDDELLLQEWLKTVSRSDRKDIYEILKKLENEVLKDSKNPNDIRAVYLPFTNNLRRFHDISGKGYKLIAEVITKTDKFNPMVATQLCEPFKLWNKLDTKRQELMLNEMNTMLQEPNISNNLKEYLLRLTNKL
In words: P. falciparum M1AAP inhibitors, biochemical, fluorogenic H-Leu-NHMec substrate, 1536-well (AID 1445). Also noted: species or system Plasmodium falciparum 3D7, 3D7.

Experiment [1] concerns the target T2, Rac GTPase-activating protein 1 (Homo sapiens, UniProt Q9H0H5).
T2 sequence (Q9H0H5 whole entry): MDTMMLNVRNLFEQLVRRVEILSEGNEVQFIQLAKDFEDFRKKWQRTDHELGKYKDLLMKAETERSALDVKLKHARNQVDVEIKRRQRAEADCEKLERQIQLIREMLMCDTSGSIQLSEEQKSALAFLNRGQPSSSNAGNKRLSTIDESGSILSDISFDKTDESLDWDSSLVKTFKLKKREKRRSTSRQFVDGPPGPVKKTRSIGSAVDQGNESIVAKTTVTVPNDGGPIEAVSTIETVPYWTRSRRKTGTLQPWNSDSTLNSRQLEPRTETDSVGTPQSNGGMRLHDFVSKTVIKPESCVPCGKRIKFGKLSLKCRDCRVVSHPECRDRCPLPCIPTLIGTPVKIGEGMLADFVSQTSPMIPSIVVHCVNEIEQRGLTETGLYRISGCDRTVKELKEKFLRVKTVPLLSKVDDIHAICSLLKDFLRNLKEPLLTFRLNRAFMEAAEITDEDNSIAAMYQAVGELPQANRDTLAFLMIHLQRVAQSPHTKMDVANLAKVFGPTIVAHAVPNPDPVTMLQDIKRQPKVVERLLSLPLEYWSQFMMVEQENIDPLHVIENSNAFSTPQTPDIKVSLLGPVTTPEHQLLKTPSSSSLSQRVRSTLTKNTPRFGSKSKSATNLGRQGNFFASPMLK
In words: MgcRacGAP GTPase-activating activity inhibitors, confirmation, biochemical, ADP Hunter fluorescence, primary and confirmatory (AID 624330). The format is functional.

The target in experiment [2] is T3, Alkaline phosphatase, tissue-nonspecific isozyme (Homo sapiens, UniProt P05186).
T3 sequence (P05186 whole entry): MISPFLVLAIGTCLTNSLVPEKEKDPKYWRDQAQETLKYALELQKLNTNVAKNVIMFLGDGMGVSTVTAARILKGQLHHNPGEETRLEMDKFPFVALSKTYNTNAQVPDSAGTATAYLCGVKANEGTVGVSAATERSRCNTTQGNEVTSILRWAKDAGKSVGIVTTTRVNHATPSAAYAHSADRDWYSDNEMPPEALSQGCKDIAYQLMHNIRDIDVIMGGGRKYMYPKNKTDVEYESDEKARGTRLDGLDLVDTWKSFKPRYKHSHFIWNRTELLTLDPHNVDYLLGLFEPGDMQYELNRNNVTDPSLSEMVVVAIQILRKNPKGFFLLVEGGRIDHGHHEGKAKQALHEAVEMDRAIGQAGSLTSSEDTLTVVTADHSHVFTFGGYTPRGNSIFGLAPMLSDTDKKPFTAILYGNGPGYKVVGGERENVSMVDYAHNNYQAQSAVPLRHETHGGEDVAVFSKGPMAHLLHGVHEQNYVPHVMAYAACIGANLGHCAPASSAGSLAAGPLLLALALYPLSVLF
In words: TNAP enzyme inhibition by screening hits, dose response, selectivity assay for mouse IAP inhibitor project, biochemical, human TNAP, uHTS hits (AID 488906). The format is functional.

Experiment [3] deals with Polyadenylate-binding protein 1 (Homo sapiens, UniProt P11940). In words: PABP1 MLLE–PAM2 interaction inhibitors, dose response, miRNA deadenylation inhibitor project, biochemical, fluorescence polarization, Cy5-PAM2 peptide, secondary (AID 602260). The format is functional. Particulars: read-out: IC50_Mean. (In fluorescence polarisation assays a small probe gives low polarisation when free and higher when bound to something large.)
Sequence of Polyadenylate-binding protein 1 (P11940 whole entry): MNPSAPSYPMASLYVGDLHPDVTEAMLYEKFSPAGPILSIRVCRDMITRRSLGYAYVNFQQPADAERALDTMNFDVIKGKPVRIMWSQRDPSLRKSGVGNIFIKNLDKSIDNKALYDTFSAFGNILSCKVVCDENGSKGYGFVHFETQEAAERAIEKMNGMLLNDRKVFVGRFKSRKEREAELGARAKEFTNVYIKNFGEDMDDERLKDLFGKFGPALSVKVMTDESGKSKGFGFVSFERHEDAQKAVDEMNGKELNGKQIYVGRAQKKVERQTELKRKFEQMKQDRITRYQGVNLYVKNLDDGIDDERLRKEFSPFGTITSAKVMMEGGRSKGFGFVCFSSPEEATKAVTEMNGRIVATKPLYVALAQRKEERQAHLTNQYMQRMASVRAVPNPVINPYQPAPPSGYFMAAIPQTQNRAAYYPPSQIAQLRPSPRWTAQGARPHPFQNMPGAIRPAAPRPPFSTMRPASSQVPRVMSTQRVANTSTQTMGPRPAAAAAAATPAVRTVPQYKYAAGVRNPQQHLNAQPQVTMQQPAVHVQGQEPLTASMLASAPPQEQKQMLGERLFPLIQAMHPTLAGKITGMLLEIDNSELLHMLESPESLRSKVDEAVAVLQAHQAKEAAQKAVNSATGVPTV

The target in a further experiment is T4, Aspartyl aminopeptidase (Plasmodium falciparum 3D7, UniProt Q8I2J3).
T4 sequence (Q8I2J3 whole entry): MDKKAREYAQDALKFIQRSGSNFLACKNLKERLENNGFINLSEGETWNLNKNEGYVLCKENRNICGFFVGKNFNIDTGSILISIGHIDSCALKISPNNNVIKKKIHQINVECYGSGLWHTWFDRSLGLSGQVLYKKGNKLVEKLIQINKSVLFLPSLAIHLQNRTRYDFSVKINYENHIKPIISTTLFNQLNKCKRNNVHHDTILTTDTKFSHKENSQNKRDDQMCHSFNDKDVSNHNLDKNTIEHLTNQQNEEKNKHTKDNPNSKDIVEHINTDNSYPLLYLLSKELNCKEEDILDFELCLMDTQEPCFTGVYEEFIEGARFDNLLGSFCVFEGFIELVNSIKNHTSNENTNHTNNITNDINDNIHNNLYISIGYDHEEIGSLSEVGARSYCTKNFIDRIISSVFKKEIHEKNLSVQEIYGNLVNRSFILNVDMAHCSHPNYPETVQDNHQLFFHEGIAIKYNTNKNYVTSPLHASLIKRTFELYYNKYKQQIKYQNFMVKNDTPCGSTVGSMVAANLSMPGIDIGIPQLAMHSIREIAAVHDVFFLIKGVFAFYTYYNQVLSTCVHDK

Molecules are shown by their SMILES. Active and inactive are the calls of the source. Bounds are passed on as bounds.

In the case of `Cc1cc(C)c(S(=O)(=O)Nc2cc(SCC(=O)O)c(O)c3ccccc23)cc1C`, the IC50 at Aminopeptidase N is 48.5 µM (active).
Turning to `O=C(O)c1cc(N2N=C(C(F)(F)F)/C(=C/C=C/c3ccco3)C2=O)ccc1Cl`, in experiment [1], the IC50 was 10.6 µM (active).
As for `O=C(/C=C/c1ccco1)NC(=S)Nc1cccc(C(=O)O)c1`, the IC50 in experiment [2] is 76.1 µM (active).
On to `CNCc1ccccc1Sc1ccc(O)c(O)c1`, for which the IC50 in experiment [3] was > 66 µM (inactive); at Aspartyl aminopeptidase, 1.89 µM (active).
